Data on five compounds can be found in article PMC7000521, “Hazard Characterization of Synthetic Cathinones Using Viability, Monoamine Reuptake, and Neuronal Activity Assays” (Frontiers in Neuroscience, 2020).

Read-outs that look alike come from different tables or passages of the source.

For this assay, the system named is rat primary cortical cultures. Briefly: MEA recordings of spontaneous neuronal network activity. The assay is classed as cell-based. The conditions noted are these: for IC50: Rattus norvegicus, value [CI]; for Increased potency to inhibit neuronal activity (MSR, MBR, and MNBR) compared to cathinones lacking the lengthened alkyl chain: acute and prolonged exposure. As for the experimental part:
Rat pups born of timed-pregnant Wistar rats (Envigo, Horst, Netherlands) were sacrificed on postnatal day 0–1 to prepare cortical cultures grown on MEA plates as described previously ([Zwartsen et al., 2018], [2019]). Briefly, a 50 μL drop of cell suspension was added to each well (1 × 10^5 cells/well) of a 48-well MEA plate (Axion BioSystems Inc., Atlanta, GA, United States, M768-GL1-30Pt200) coated with 0.1% polyethyleneimine (PEI). After 2 h, 450 μL dissection medium was added to each well. The day after the isolation (day in vitro 1; DIV1), 450 μL/well dissection medium was replaced with 450 μL/well glutamate medium. At DIV4, 450 μL/well glutamate medium was replaced with 450 μL/well FBS medium (for medium supplements see [Zwartsen et al., 2018], [2019]). Cultures were kept in FBS medium at 37°C, 5% CO2/95% air atmosphere until use at DIV9-10.
Microelectrode array recordings were performed as described in [Zwartsen et al. (2019)]. In short, neuronal activity was measured using a Maestro 768-channel amplifier (Axion BioSystems Inc., Atlanta, GA, United States). Baseline spontaneous neuronal activity was recorded for 30 min at 37°C, after which wells were exposed to selected synthetic cathinones under sterile conditions. Next, neuronal activity was determined during a 30 min “acute exposure” recording. […] Next, exposure medium was replaced with fresh FBS medium and the plate was incubated for 19 h at 37°C, until the 30 min “washout” recording, i.e., 24 h after the start of the exposure.
Effects of 3-MMC, 4-MMC, 4-MEC, pentedrone, 3-MMCinternet, and 4-MECinternet were tested at 1–1000 μM (final concentration). At the day of exposure, stocks and dilutions were freshly made in NB-A FBS medium (for medium supplements see [Zwartsen et al., 2019]). Data on methylone, α-PVP, and MDPV exposure have been published previously in [Zwartsen et al. (2019)]. For each experimental condition, primary cultures from two to three different isolations were used and tested in four to five plates (Nplates). The number of wells (nwells) represents the number of replicates per condition.
Microelectrode array data were analyzed as described in [Zwartsen et al. (2019)]. In short, parameters of interest after acute exposure were expressed as a percentage of the parameters prior to exposure to obtain a treatment ratio for each well (paired comparison; parameterexposure/parameterbaseline as % of control wells). The parameters after prolonged exposure and washout were also expressed as a percentage of the baseline parameters. Next, treatment ratios were grouped per parameter, condition, drug [e.g., mean spike rate (MSR) 10 μM 3-MMC] and exposure scenario (acute, prolonged, or washout).
Outliers (>mean ± 2×SD) for MSR (5.0%) were used to exclude wells on all parameters. Outliers for mean burst rate (MBR; 2.6%) and mean network burst rate (MNBR; 1.4%) were used to exclude wells on specific parameters (burst, network burst, and synchronicity parameters, or network burst and synchronicity parameters, respectively). Finally, the acute, prolonged, and washout control treatment ratios were set to 100% and treatment ratios of exposed wells were normalized to the average treatment ratio of medium control wells of the corresponding parameter and exposure scenario. Treatment ratios of exposed wells were averaged per parameter (e.g., MSR), condition (e.g., 100 μM), drug (e.g., methylone), and exposure scenario (e.g., acute exposure) and used for further statistical analyses [see [Zwartsen et al. (2019)] for more details on criteria, parameters, and exposure scenarios]. Neuronal activity (as % of control) is expressed as mean ± SEM of nwells from Nplates. As the spike, burst, and network burst rates were among the most sensitive parameters, these parameters are presented in the manuscript. Additional parameters are presented in Supplementary Figure 2.
Concentration–response curves were made for transporter, MEA, and cell viability assays. […]

Where [1] appears, read: 0.5 h, acute exposure 30 min, read-out: Neuronal activity IC50, mean burst rate (MBR), acute.
Where [2] appears, read: 0.5 h, acute exposure 30 min, read-out: Neuronal activity IC50, mean network burst rate (MNBR), acute.
[3] abbreviates: 0.5 h, acute exposure 30 min, read-out: Neuronal activity IC50, mean spike rate (MSR), acute.
[4] abbreviates: prolonged exposure 4.5 h, read-out: Neuronal activity IC50, mean burst rate (MBR), prolonged.
The mark [5] stands for this setting: prolonged exposure 4.5 h, read-out: Neuronal activity IC50, mean network burst rate (MNBR), prolonged.
Setting [6] is: prolonged exposure 4.5 h, read-out: Neuronal activity IC50, mean spike rate (MSR), prolonged.
Where [7] appears, read: 19 h washout, 24 h after start of exposure, read-out: Neuronal activity IC50, mean burst rate (MBR), recovery.
[8] abbreviates: 19 h washout, 24 h after start of exposure, read-out: Neuronal activity IC50, mean network burst rate (MNBR), recovery.
[9] abbreviates: 19 h washout, 24 h after start of exposure, read-out: Neuronal activity IC50, mean spike rate (MSR), recovery.

Consider `CCCC(NC)C(=O)c1ccccc1` (centres unmarked) [Pentedrone, 2-(methylamino)-1-phenyl pentan-1-one], for which the “Increased potency to inhibit neuronal activity (MSR, MBR, and MNBR) compared to cathinones lacking the lengthened alkyl chain” value is given as “two to fourfold”. In addition, the IC50 under setting [1] stood at 26 µM. In addition, under setting [2], the IC50 was 23 µM. Also, the IC50 under setting [3] was found to be 23 µM. The IC50 under setting [4] came to 28 µM. Also, under setting [5], the IC50 stood at 28 µM. In addition, under setting [6], the IC50 stood at 27 µM. For the same compound, the “Neuronal activity following washout” value (highest concentration (1000 μM), washout 24 h after start of exposure) is “remained fully inhibited”.
`CCCC(C(=O)c1ccc2c(c1)OCO2)N1CCCC1` (centres unmarked) [MDPV, 1-(1,3-benzodioxol-5-yl)-2-pyrro lidin-1-ylpentan-1-one]: the “Increased potency to inhibit neuronal activity (MSR, MBR, and MNBR) compared to cathinones lacking the lengthened alkyl chain” value is given as “two to fourfold”.
Turning to `CNC(C)C(=O)c1ccc(C)cc1` (centres unmarked) [4-MMC, 2-(methylamino)-1-(4-methylphenyl) propan-1-one], the 50% inhibitory concentration (IC50) is, setting by setting: under setting [1], 118 µM; under setting [2], 120 µM; under setting [3], 101 µM; under setting [7], above 1000 µM; under setting [8], above 1000 µM; under setting [9], above 1000 µM. The IC50 under setting [4] was determined as 147 µM, the IC50 under setting [5] turned out to be 167 µM and the IC50 under setting [6] was determined as 114 µM.
Take `CNC(C)C(=O)c1cccc(C)c1` (centres unmarked) [3-MMC, 2-(methylamino)-1-(3-methylphenyl) propan-1-one]: the IC50 reads like this: under setting [1], 79 µM; under setting [2], 67 µM; under setting [3], 65 µM; under setting [7], above 1000 µM; under setting [8], above 1000 µM.
For `CCNC(C)C(=O)c1ccc(C)cc1` (centres unmarked) [4-MEC, 2-(ethylamino)-1-(4-methylphenyl) propan-1-one], the IC50 is, setting by setting: under setting [1], 74 µM; under setting [2], 68 µM; under setting [3], 73 µM; under setting [7], above 1000 µM; under setting [8], above 1000 µM; under setting [9], above 1000 µM.

In general, IC50 refers to the concentration needed to halve the response being measured.
